Experimental data reported in PubChem BioAssay (NCI).
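In this assay, cells in 96-well plates receive the compound at five concentrations for 48 hours. Endpoints are linearly interpolated between the surrounding concentrations. At the TGI there is no net growth.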

Assays:
Assay in all cases: growth of human tumour cells (NCI), 48 h
SW-620 colon = system: SW-620 colon
ACHN renal = system: ACHN renal
OVCAR-8 ovarian = system: OVCAR-8 ovarian
U251 CNS = system: U251 CNS
SK-MEL-2 melanoma = system: SK-MEL-2 melanoma
HCT-15 colon = system: HCT-15 colon
NCI/ADR-RES ovarian = system: NCI/ADR-RES ovarian
K-562 leukemia = system: K-562 leukemia
NCI-H23 lung = system: NCI-H23 lung
HT29 colon = system: HT29 colon
KM12 colon = system: KM12 colon
SK-OV-3 ovarian = system: SK-OV-3 ovarian
RXF 393 renal = system: RXF 393 renal
M14 melanoma = system: M14 melanoma
MDA-N = system: MDA-N
MALME-3M melanoma = system: MALME-3M melanoma
PC-3 prostate = system: PC-3 prostate
MCF7 breast = system: MCF7 breast
NCI-H522 lung = system: NCI-H522 lung
NCI-H460 lung = system: NCI-H460 lung
COLO 205 colon = system: COLO 205 colon
T-47D breast = system: T-47D breast
DU-145 prostate = system: DU-145 prostate
OVCAR-4 ovarian = system: OVCAR-4 ovarian
LOX IMVI melanoma = system: LOX IMVI melanoma
CAKI-1 renal = system: CAKI-1 renal
SF-268 CNS = system: SF-268 CNS
HCT-116 colon = system: HCT-116 colon
HOP-62 NSCLC = system: HOP-62 NSCLC
UO-31 renal = system: UO-31 renal
OVCAR-3 ovarian = system: OVCAR-3 ovarian
NCI-H226 lung = system: NCI-H226 lung
RPMI-8226 leukemia = system: RPMI-8226 leukemia
SNB-19 CNS = system: SNB-19 CNS
OVCAR-5 ovarian = system: OVCAR-5 ovarian
HL-60(TB) leukemia = system: HL-60(TB) leukemia
SF-295 CNS = system: SF-295 CNS
SK-MEL-5 melanoma = system: SK-MEL-5 melanoma
SNB-75 CNS = system: SNB-75 CNS
SF-539 CNS = system: SF-539 CNS
A549 NSCLC = system: A549 NSCLC
BT-549 breast = system: BT-549 breast
HOP-92 NSCLC = system: HOP-92 NSCLC
MDA-MB-435 = system: MDA-MB-435
786-0 renal = system: 786-0 renal
HS 578T breast = system: HS 578T breast
SN12C renal = system: SN12C renal
SK-MEL-28 melanoma = system: SK-MEL-28 melanoma
TK-10 renal = system: TK-10 renal
A498 renal = system: A498 renal
SR leukemia = system: SR leukemia
IGROV1 ovarian = system: IGROV1 ovarian
EKVX NSCLC = system: EKVX NSCLC
CCRF-CEM leukemia = system: CCRF-CEM leukemia
MDA-MB-231 breast = system: MDA-MB-231 breast
UACC-257 melanoma = system: UACC-257 melanoma
MOLT-4 leukemia = system: MOLT-4 leukemia
UACC-62 melanoma = system: UACC-62 melanoma

Measured: TGI

O=C(O)CNC(=O)c1ccccc1O
> 100 µM: all assays above
